Target: T1, PKC-λ/ι (PKC-ι) (Homo sapiens, UniProt P41743)
T1 sequence (P41743 2-596): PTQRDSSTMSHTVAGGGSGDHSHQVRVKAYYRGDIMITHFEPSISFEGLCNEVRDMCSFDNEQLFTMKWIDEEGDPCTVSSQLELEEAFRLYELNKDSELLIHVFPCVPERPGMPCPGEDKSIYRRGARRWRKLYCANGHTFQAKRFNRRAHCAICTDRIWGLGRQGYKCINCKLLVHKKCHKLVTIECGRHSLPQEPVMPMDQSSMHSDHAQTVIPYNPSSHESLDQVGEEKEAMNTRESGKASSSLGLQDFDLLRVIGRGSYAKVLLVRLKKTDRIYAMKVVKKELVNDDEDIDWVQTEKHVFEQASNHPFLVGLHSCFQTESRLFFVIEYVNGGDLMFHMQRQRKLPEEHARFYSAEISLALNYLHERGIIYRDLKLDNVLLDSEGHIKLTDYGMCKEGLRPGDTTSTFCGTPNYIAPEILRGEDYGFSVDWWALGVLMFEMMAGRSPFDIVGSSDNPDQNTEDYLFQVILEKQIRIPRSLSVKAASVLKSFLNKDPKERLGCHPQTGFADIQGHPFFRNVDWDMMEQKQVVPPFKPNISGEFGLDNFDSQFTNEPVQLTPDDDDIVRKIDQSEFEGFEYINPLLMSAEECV
Format: cell-based

- IC50: 1 to 10 nM
SMILES: NC(=O)c1ncn([C@@H]2C[C@H](COP(=O)(O)O)[C@@H](O)[C@H]2O)c1N [ICAPP, 1H-imidazole-4-carboxamide,5-amino]-[2,3-dihydroxy-4-[(phosphono-oxy)methyl]cyclopentane-[1R-(1a,2b,3b,4a)]]

Source: PMC5705272 (Neurobiology of aging, 2017)
